Data set [1] deals with migraine attack. Briefly: Case reports: oral tablets during migraine attacks. The data set is classed as in vivo, human. To be noted: for Side effects of past medical treatment: in vivo. The procedure:
Previous medical history: The subject is a smoking person first diagnosed as a classical migraine sufferer. Except for this they are completely healthy. Until two years ago the frequency of the migraine attacks was seven episodes per month. During the last two years they were treated with different kinds of recognized medications, with little or no success. Due to lack of response to the medical treatment during the migraine attacks, they tried alternative medicine treatments.
First attack: The subject suffered an acute migraine attack that lasted 72 hours. […] On the next day the subject received a single dose of 50 mg S-ethylisothiouronium diethylphosphate (2 tablets of 25 mg each). […] Between 10 to 15 minutes following administration the pain abruptly disappeared, as did all other symptoms, which appeared during the migraine attack.
Second attack: (three weeks later) The second migraine attack started during the night. On the next day the subject received once again 2 tablets of S-ethylisothiouronium diethylphosphate (50 mg). This time the intake of the tablets was during the peak of the migraine attack, after having a meal. Within 20 minutes the headache was relieved, the subject was able to focus their eyesight, and the photophobia disappeared. There was a weak headache but its intensity was reduced. Three hours later the subject took two more tablets of S-ethylisothiouronium diethylphosphate (50 mg). Within 15 minutes the migraine pain disappeared.
Third attack: (two and a half weeks after the second attack) the migraine attack started on their way to work. An hour after onset within the peak of the migraine attack, the subject received 2 tablets of S-ethylisothiouronium diethylphosphate (each of 25 mg). Drug was taken on empty stomach. Within 11 minutes the migraine symptoms disappeared.
Previous Medical History: The subject is a non-smoking person suffering from migraine attacks during the last two years. The frequency of the migraine attacks is once a month before the menstruation period. The pain appears in the temples, the sinuses and spreads down to the lower jaw. The duration of the photophobia was about 48 hours. So far the subject has not applied to receive specific medical treatment and used to take conventional analgesic drugs.
First attack: The onset of an acute migraine attack was in the morning and the symptoms grew stronger during the day. Just before noon time the subject received one tablet of S-ethylisothiouronium diethylphosphate (25 mg). […] Two hours later the subject received 2 more tablets of S-ethylisothiouronium diethylphosphate (each of 25 mg). Ten minutes later, the migraine pain disappeared.
Second attack: (about four weeks after the first attack) The migraine attack started as a consequence of very hot weather conditions. The intensity of this attack was greater than the usual migraine attacks. In the morning, the subject received 2 tablets of S-ethylisothiouronium diethylphosphate (50 mg) that were taken on an empty stomach. Within 20 minutes of S-ethylisothiouronium diethylphosphate intake there was a significant relief in migraine pain. Fifteen minutes later the pain disappeared. Later that day, during the afternoon, the subject suffered a weak pain. This time the subject self administered analgesic drugs and the pain disappeared.

Data set [2] relates to acute migraine attack (headache). Briefly: Clinical trial of intravenous Difetur 10% solution in acute migraine attack. The data set is classed as in vivo, human. Particulars: for Percentage of Patients Benefited by Treatment / Mean time elapsed to Effect: 0.6 mg/kg IV drip; for Mean time elapsed to Effect: to grade 1-0. As to the method:
The purpose of following exploratory protocol was to evaluate the safety and potential efficacy of Difetur 10% solution for injection, in dose 0.6 mg/kg, in treatment of a single acute migraine attack. The study was designed as an open study in a selected population of subjects classified according to IHS criteria as suffering from migraine headaches of moderate or severe intensity, without aura. The study was conducted according to established international criteria for evaluating safety and efficacy for migraine treatment.
Difetur was presented as 10% (100 mg/mL) solution in 1 mL ampoules. It was dissolved in 100 mL of saline solution in intravenous device before treatment. The dose of Difetur was 0.6 mg/kg, given by intravenous drip during 10 min.
Headache severity was graded verbally on a 5-point scale: very severe (grade 4), severe (grade 3), moderate (grade 2), mild (grade 1), no pain (grade 0). Success was considered as reduction of the headache severity from very severe, severe or moderate (grade 4-2) to mild or no pain (grade 1-0).

Data set [3] shares this test system. Briefly: Dose escalating exploratory study of Difetur tablets for acute migraine attack: headache reduction. The data set is classed as in vivo, human. To be noted: for Percentage of Patients Benefited by Treatment: headache grade 3-4 reduced to 1-2; for Time elapsed to Effect: time after ingestion to headache grade 1-2. As to the method:
Dose escalating exploratory study on the safety and efficacy of Difetur tablets for the treatment of acute migraine attack.
(§1) The purpose of following exploratory protocol is to evaluate the safety and potential efficacy of Difetur (S-ethylisothiouronium diethylphosphate) tablets, in escalating doses starting at 10 mg and up to 50 mg, in the treatment of a single acute migraine attack. The study was designed as an open study in a selected population of subjects classified according to IHS criteria as suffering from migraine headaches of moderate or severe intensity, without aura. The study was conducted according to established international criteria for evaluating safety and efficacy for migraine treatment.
(§2) The study was performed as a 5 arm (groups) study. Only female patients classified as suffering from migraine without aura, according to IHS criteria are enrolled in the study. Each group consists of ten migraine patients who are treated during an acute migraine attack with Difetur tablets in a hospital setting. The initial dose of Difetur is 10 mg (1 tablet), consequently increasing to 20 mg, 30 mg, 40 mg, and 50 mg. The total number of patients to be enrolled is 50. The patients are hospitalized and followed for at least 4 hours to assess the safety, efficacy and possible side effects of Difetur.
In the first group of 10 patients each receive the initial dose of 10 mg of the study medication in a single tablet form. The dose of 50 mg is given as two tablets of 25 mg each. The tablets are individually packed in blister package, and have a label identifying the study medication as an investigational drug. Each dose in an escalating manner is given to 10 patients. The medication is swallowed with a glass of water under the supervision of an attending physician.
Headache severity is graded verbally in a 4-points scale: severe (grade 4), moderate (grade 3), mild (grade 2), or no pain (grade 1). Success is considered as a reduction of the headache severity from a severe or moderate headache (grade 3-4) to mild or no pain (grade 1-2).

Data set [4] deals with emesis during migraine attack. Briefly: Difetur tablets: emesis/nausea treatment during migraine attack. Format: in vivo, human. As to the method: as §1, §2
4.2 Secondary Efficacy Targets are the Reduction of Nausea, Vomiting and Light And Sound Sensitivity.
These are assigned for their presence, absence or disappearance as documented by the patient.

For data set [5] the following is noted: therapeutic doses; cited from earlier work.
Setting [6] is: Case 2, second attack, 50 mg oral, empty stomach.

The text below walks through data of patent publication US8673979B2, “Pharmaceutical compositions for headache, migraine, nausea and emesis” (Meditor Pharmaceuticals Ltd., priority 2000, dated 2014).

As to `CN(C)CCc1c[nH]c2ccc(C[C@H]3COC(=O)N3)cc12` [Zomig, reference compound], the “Side effects of past medical treatment” value in data set [1] was “various strong side effects”.

Consider “S-ethylisothiouronium diethylphosphate [Difetur]”, for which the Side effects result in data set [1] (Case 1, 50 mg oral) is recorded as “No side effects”; in data set [1] (Case 2, 25 or 50 mg oral), “No side effects”; in data set [3] (clinical trials, human subjects), “no side effects”. In addition, in data set [1] (Case 1, second attack, 50 mg oral, after a meal), the “Time to headache relief” value is at most 20 min. Also, the “Time to disappearance of migraine pain” value in data set [1] (Case 1, second attack, further 50 mg three hours later) is at most 15 min; in data set [1] (Case 2, first attack, 2 more 25 mg tablets two hours later) it was “Ten”. Besides, the “Time to disappearance of migraine symptoms” value in data set [1] (Case 1, third attack, 50 mg oral, empty stomach) was at most 11 min. In data set [1] (Case 1, previously seven episodes per month), the “Frequency of migraine attacks after treatment” value was “about three”. Moreover, in data set [1] (Case 2, first attack, one 25 mg tablet), the “Change in migraine pain” value is “No substantial change”. Moreover, the “Time from significant relief to disappearance of pain” value in data set [1] (setting [6]) was “Fifteen”. For the same compound, the “Time to significant relief in migraine pain” value in data set [1] (setting [6]) was at most 20 min. In data set [1] (both case reports, at peak of attack), the “Time to elimination of migraine symptoms” value is “less than 20 minutes”. Also, the “Headache recurrence (rebound/relapse)” value in data set [1] (case reports) is recorded as “not observed”. For the same compound, the “Percentage of Patients Benefited by Treatment” value in data set [2] (headache grade 2) amounted to 87%; in data set [2] (headache grade 3), 100%; in data set [2] (headache grade 4) it was 100%; in data set [3] (10 mg oral tablet), 0%; in data set [3] (20 mg oral), 70%; in data set [3] (30 mg oral), 70%. Also, the “Mean time elapsed to Effect” value worked out at 13.7 min in data set [2] (headache grade 2), 25.5 min in data set [2] (headache grade 3) and 50 min in data set [2] (headache grade 4). The “Headache relief, overall” value in data set [2] (0.6 mg/kg IV, 13 patients, all except one) is on record as “significant headache relief”. Further, the “Time elapsed to Effect” value is recorded as 43 min in data set [3] (20 mg oral) and 58 min in data set [3] (30 mg oral). The “Time to dramatic improvement” value in data set [3] (in some cases) is at most 15 min. In addition, the “Time to reduction of migraine symptoms, on average” value in data set [3] (oral, at peak of migraine attack) is given as “around 45 minutes”. In data set [3] (treatment initiated at peak of migraine attack), this compound gave a Time to relief of at most 60 min. Moreover, the “Percentage of Patients Affected by Treatment (positive anti-emetic response)” value in data set [4] (10 mg oral) was found to be 70%; in data set [4] (20 mg oral), 100%; in data set [4] (30 mg oral), 100%. For the same compound, the “Time elapsed until Effect (termination of emesis)” value in data set [4] (10 mg oral) turned out to be 28 min; in data set [4] (20 mg oral), 25 min; in data set [4] (30 mg oral), 29 min. Further, the “Effect of low doses on nausea” value in data set [4] (low doses ineffective or less effective on headache) is “effective at reducing or abolishing the symptoms of nausea”.

Regarding `CNS(=O)(=O)Cc1ccc2[nH]cc(CCN(C)C)c2c1` [Imitrex, Sumatriptan succinate, reference compound], the “Side effects of past medical treatment” value in data set [1] is “various strong side effects”.

Turning to `CN1C[C@H](C(=O)N[C@]2(C)O[C@@]3(O)[C@@H]4CCCN4C(=O)[C@H](Cc4ccccc4)N3C2=O)C=C2c3cccc4[nH]cc(c34)C[C@H]21` [ergotamine], the “Patients with nausea and vomiting” value in data set [5] is recorded as “up to 10%”.
